Test system: HSB-2 cells
Experiment: Inhibition of HSB-2 leukemic cell line proliferation (WST-1)
Assay type: cell-based, human
Settings: Homo sapiens, HSB2, 48 h, cytotoxicity on HSB-2 cells, two days incubation, WST-1 read-out
Procedure: HSB2 cell line, a human acute lymphoblastic leukemia (ATCC; CCL-120.1) cell line, was grown in RPMI-1640 medium (Lonza, Belgium) supplemented with 10% fetal calf serum (Hyclone, US) and antibiotics. Exponential growing phase cells were seed in flat bottom 96-well microplates (TTP, Switzerland) at 50000 cells per well in 220 μl of medium with compounds (in different concentrations) and incubated for two days at 37° C., 5% CO2. After incubation, 100 μl of supernatant were removed and 10 μl of WST-1 (Roche, Switzerland) were added. After 2 hour incubation at 37° C., 5% CO2, optical densities were measured at 450 nm. Proliferation is calculated with respect of control points (no compound and treatment with Triton X100 to have maximum and minimum proliferation data). The IC50 was determined from a graph with at least four points, each derived from the mean of at least 2 experiments. […] The results are shown in Table 1 for a number of compounds.

Compound	IC50
COc1cccc(CCc2nc3c(N4CCN(C(=O)COc5ccc(Br)cc5)CC4)nc(N)nc3s2)c1 [Example 254, 1-(4-(5-amino-2-(3-methoxyphenethyl)thiazolo[5,4-d]pyrimidin-7-yl)piperazin-1-yl)-2-(4-bromophenoxy)ethanone]	> 10 µM
Nc1nc(N2CCN(C(=O)COc3ccc(Cl)cc3)CC2)c2nc(CCCCc3ccc(F)cc3)sc2n1 [Example 292, 1-(4-(5-amino-2-(4-(4-fluorophenyl)butyl)thiazolo[5,4-d]pyrimidin-7-yl)piperazin-1-yl)-2-(4-chlorophenoxy)ethanone]	9.79 µM
Cc1ccc(CCc2nc3c(N4CCN(C(=O)COc5ccc(Cl)cc5)CC4)nc(N)nc3s2)cc1 [Example 260, 1-(4-(5-amino-2-(4-methylphenethyl)thiazolo[5,4-d]pyrimidin-7-yl)piperazin-1-yl)-2-(4-chlorophenoxy)ethanone]	4.49 µM
Nc1nc(N2CCN(C(=O)COc3ccc(Cl)cc3)CC2)c2nc(-c3ccccc3)sc2n1 [Example 215, 1-(4-(5-amino-2-phenylthiazolo[5,4-d]pyrimidin-7-yl)piperazin-1-yl)-2-(4-chlorophenoxy)ethanone]	0.24 µM
COc1ccc(OCC(=O)N2CCN(c3nc(N)nc4sc(CCc5ccc(Br)cc5)nc34)CC2)cc1 [Example 298, 1-(4-(5-amino-2-(4-bromophenethyl)thiazolo[5,4-d]pyrimidin-7-yl)piperazin-1-yl)-2-(4-methoxyphenoxy)ethanone]	> 10 µM
COc1ccc(OCC(=O)N2CCN(c3nc(N)nc4sc(CCc5cccc(OC)c5)nc34)CC2)cc1 [Example 253, 1-(4-(5-amino-2-(3-methoxyphenethyl)thiazolo[5,4-d]pyrimidin-7-yl)piperazin-1-yl)-2-(4-methoxyphenoxy)ethanone]	4.99 µM
COc1ccc(OCC(=O)N2CCN(c3nc(N)nc4sc(-c5ccc(F)cc5)nc34)CC2)cc1 [Example 234, 1-(4-(5-amino-2-(4-fluorophenyl)thiazolo[5,4-d]pyrimidin-7-yl)piperazin-1-yl)-2-(4-methoxyphenoxy)ethanone]	0.2 µM
Nc1nc(N2CCN(C(=O)COc3ccc(F)cc3)CC2)c2cc(-c3ccccc3)sc2n1 [Example 370, 1-(4-(2-amino-6-phenylthieno[2,3-d]pyrimidin-4-yl)piperazin-1-yl)-2-(4-fluorophenoxy)ethanone]	6.38 µM
Nc1nc(N2CCN(C(=O)COc3ccc(Br)cc3)CC2)c2cc(-c3ccccc3)sc2n1 [Example 372, 1-(4-(2-amino-6-phenylthieno[2,3-d]pyrimidin-4-yl)piperazin-1-yl)-2-(4-bromophenoxy)ethanone]	9.87 µM
COc1ccc(CCc2nc3c(N4CCN(C(=O)COc5ccc(Br)cc5)CC4)nc(N)nc3s2)cc1OC [Example 256, 1-(4-(5-amino-2-(3,4-dimethoxyphenethyl)thiazolo[5,4-d]pyrimidin-7-yl)piperazin-1-yl)-2-(4-bromophenoxy)ethanone]	> 10 µM
Nc1nc(N2CCN(C(=O)COc3ccc(Cl)cc3)CC2)c2nc(CCCc3ccc(F)cc3)sc2n1 [Example 290, 1-(4-(5-amino-2-(3-(4-fluorophenyl)propyl)thiazolo[5,4-d]pyrimidin-7-yl)piperazin-1-yl)-2-(4-chlorophenoxy)ethanone]	> 10 µM
COc1ccc(OCC(=O)N2CCN(c3nc(N)nc4sc(CCCc5ccc(F)cc5)nc34)CC2)cc1 [Example 291, 1-(4-(5-amino-2-(3-(4-fluorophenyl)propyl)thiazolo[5,4-d]pyrimidin-7-yl)piperazin-1-yl)-2-(4-methoxyphenoxy)ethanone]	> 10 µM
COc1ccc(OCC(=O)N2CCN(c3nc(N)nc4sc(CCc5ccc(C)cc5)nc34)CC2)cc1 [Example 259, 1-(4-(5-amino-2-(4-methylphenethyl)thiazolo[5,4-d]pyrimidin-7-yl)piperazin-1-yl)-2-(4-methoxyphenoxy)ethanone]	3 µM
Nc1nc(N2CCN(C(=O)COc3ccc(Br)cc3)CC2)c2nc(Cc3ccc(F)cc3)sc2n1 [Example 231, 1-(4-(5-amino-2-(4-fluorobenzyl)thiazolo[5,4-d]pyrimidin-7-yl)piperazin-1-yl)-2-(4-bromophenoxy)ethanone]	2.63 µM
CC(=O)c1ccc(OCC(=O)N2CCN(c3nc(N)nc4sc(CCc5ccc(F)cc5)nc34)CC2)cc1 [Example 227, 2-(4-acetylphenoxy)-1-(4-(5-amino-2-(4-fluorophenethyl)thiazolo[5,4-d]pyrimidin-7-yl)piperazin-1-yl)ethanone]	> 10 µM
COC(=O)c1ccc(OCC(=O)N2CCN(c3nc(N)nc4sc(CCc5ccc(F)cc5)nc34)CC2)cc1 [Example 225, methyl 4-(2-(4-(5-amino-2-(4-fluorophenethyl)thiazolo[5,4-d]pyrimidin-7-yl)piperazin-1-yl)-2-oxoethoxy)benzoate]	> 10 µM
Cc1ccc(-c2nc3c(N4CCN(C(=O)COc5ccc(Cl)cc5)CC4)nc(N)nc3s2)cc1 [Example 295, 1-(4-(5-amino-2-p-tolylthiazolo[5,4-d]pyrimidin-7-yl)piperazin-1-yl)-2-(4-chlorophenoxy)ethanone]	0.23 µM
O=C(COc1ccc(Cl)cc1)N1CCN(c2ncnc3sc(-c4ccc(F)cc4)nc23)CC1 [Example 301, 1-(4-(2-(4-fluorophenyl)thiazolo[5,4-d]pyrimidin-7-yl)piperazin-1-yl)-2-(4-chlorophenoxy)ethanone]	2.06 µM
COc1ccc(OCC(=O)N2CCN(c3nc(N)nc4sc(CCCCc5ccc(F)cc5)nc34)CC2)cc1 [Example 293, 1-(4-(5-amino-2-(4-(4-fluorophenyl)butyl)thiazolo[5,4-d]pyrimidin-7-yl)piperazin-1-yl)-2-(4-methoxyphenoxy)ethanone]	0.83 µM
COc1cccc(CCc2nc3c(N4CCN(C(=O)COc5ccc(Cl)cc5)CC4)nc(N)nc3s2)c1 [Example 255, 1-(4-(5-amino-2-(3-methoxyphenethyl)thiazolo[5,4-d]pyrimidin-7-yl)piperazin-1-yl)-2-(4-chlorophenoxy)ethanone]	2.1 µM
Nc1nc(N2CCN(C(=O)COc3cccc(Cl)c3)CC2)c2nc(CCc3ccc(F)cc3)sc2n1 [Example 228, 1-(4-(5-amino-2-(4-fluorophenethyl)thiazolo[5,4-d]pyrimidin-7-yl)piperazin-1-yl)-2-(3-chlorophenoxy)ethanone]	> 10 µM
COc1ccc(OCC(=O)N2CCN(c3nc(N)nc4sc(Cc5ccc(F)cc5)nc34)CC2)cc1 [Example 230, 1-(4-(5-amino-2-(4-fluorobenzyl)thiazolo[5,4-d]pyrimidin-7-yl)piperazin-1-yl)-2-(4-methoxyphenoxy)ethanone]	2.21 µM
Nc1nc(N2CCN(C(=O)COc3ccc(Cl)cc3)CC2)c2nc(CCc3ccc(Br)cc3)sc2n1 [Example 299, 1-(4-(5-amino-2-(4-bromophenethyl)thiazolo[5,4-d]pyrimidin-7-yl)piperazin-1-yl)-2-(4-chlorophenoxy)ethanone]	3.72 µM
Nc1nc(N2CCN(C(=O)COc3ccc(F)cc3)CC2)c2nc(-c3ccc(F)cc3)sc2n1 [Example 233, 1-(4-(5-amino-2-(4-fluorophenyl)thiazolo[5,4-d]pyrimidin-7-yl)piperazin-1-yl)-2-(4-fluorophenoxy)ethanone]	> 10 µM
Nc1nc(N2CCN(C(=O)COc3ccc(O)cc3)CC2)c2nc(CCc3ccc(F)cc3)sc2n1 [Example 224, 1-(4-(5-amino-2-(4-fluorophenethyl)thiazolo[5,4-d]pyrimidin-7-yl)piperazin-1-yl)-2-(4-hydroxyphenoxy)ethanone]	3.94 µM
COc1ccc(OCC(=O)N2CCN(c3nc(N)nc4sc(-c5ccc(C)cc5)nc34)CC2)cc1 [Example 294, 1-(4-(5-amino-2-p-tolylthiazolo[5,4-d]pyrimidin-7-yl)piperazin-1-yl)-2-(4-methoxyphenoxy)ethanone]	4.16 µM
Cc1ccc(CCc2nc3c(N4CCN(C(=O)COc5ccc(Br)cc5)CC4)nc(N)nc3s2)cc1 [Example 258, 1-(4-(5-amino-2-(4-methylphenethyl)thiazolo[5,4-d]pyrimidin-7-yl)piperazin-1-yl)-2-(4-bromophenoxy)ethanone]	> 10 µM
Nc1nc(N2CCN(C(=O)COc3ccc(OC(F)(F)F)cc3)CC2)c2nc(CCc3ccc(F)cc3)sc2n1 [Example 226, 1-(4-(5-amino-2-(4-fluorophenethyl)thiazolo[5,4-d]pyrimidin-7-yl)piperazin-1-yl)-2-(4-(trifluoromethoxy)phenoxy)ethanone]	> 10 µM
COc1ccc(OCC(=O)N2CCN(c3nc(N)nc4sc(CCc5ccc(OC)c(OC)c5)nc34)CC2)cc1 [Example 257, 1-(4-(5-amino-2-(3,4-dimethoxyphenethyl)thiazolo[5,4-d]pyrimidin-7-yl)piperazin-1-yl)-2-(4-methoxyphenoxy)ethanone]	> 10 µM

Same assay, conditions: cytotoxicity on HSB-2 cells, two days incubation, WST-1 read-out

Compound	IC50
Nc1nc(N2CCN(C(=O)COc3ccc(Br)cc3)CC2)c2nc(-c3ccc(F)cc3)sc2n1 [Example 235, 1-(4-(5-amino-2-(4-fluorophenyl)thiazolo[5,4-d]pyrimidin-7-yl)piperazin-1-yl)-2-(4-bromophenoxy)ethanone]	0.55 µM

Source: patent US9573966B2, “Anti-cancer activity of novel bicyclic heterocycles” (Katholieke Universiteit Leuven, K.U.Leuven R&D, priority 2010, dated 2017)
